This passage reports IC50 results from patent US20120277209A1, “PYRAZINE COMPOUNDS AS PHOSPHODIESTERASE 10 INHIBITORS” (Amgen Inc., priority 2009, published 2012).

Each structure is given as a SMILES string. A value given as a limit tells only on which side of the number the result lay.

In one experiment the target is PDE10 (UniProt Q9Y233). The experiment in a line: PDE10 enzyme inhibition, IMAP TR-FRET assay (MPDE10A7 Enzyme Activity and Inhibition). Format: biochemical. Conditions: IC50 class against PDE10; read-out: IC50. How it is done:
All compounds were divided in five classes based on their IC50 values against PDE10. The range of the IC50 in each class is as follows:
An IMAP TR-FRET assay was used to analyze the enzyme activity (Molecular Devices Corp., Sunnyvale Calif.). 5 μL of serial diluted PDE10A (BPS Bioscience, San Diego, Calif.) or tissue homogenate was incubated with equal volumes of diluted fluorescein labeled cAMP or cGMP for 60 min in 384-well polystyrene assay plates (Corning, Corning, N.Y.) at room temperature. After incubation, the reaction was stopped by adding 60 μL of diluted binding reagents and was incubated for 3 hours to overnight at room temperature. The plates were read on an Envision (Perkin Elmer, Waltham, Mass.) for time resolved fluorescence resonance energy transfer. The data were analyzed with GraphPad Prism (La Jolla, Calif.).
Enzyme Inhibition. To check the inhibition profile, 5 μL of serial diluted compounds were incubated with 5 μL of diluted PDE10 enzyme (BPS Bioscience, San Diego, Calif.) or tissue homogenate in a 384-well polystyrene assay plate (Corning, Corning, N.Y.) for 30 min at room temperature. After incubation, 10 μL of diluted fluorescein labeled cAMP or cGMP substrate were added and incubated for 60 min at room temperature. The reaction was stopped by adding 60 μL of diluted binding reagents and plates were read on an Envision (Perkin Elmer, Waltham, Mass.) for time resolved fluorescence resonance energy transfer. The data were analyzed with GraphPad Prism (La Jolla, Calif.).
The tabulated IC50 data represent an average IC50 data for each compound.
Regarding `OCC1CCCCN1c1nccnc1Oc1ccc(Nc2nc3ccccc3s2)cc1` (stereo not drawn) [Example 97, (1-(3-(4-(benzo[d]thiazol-2-ylamino)phenoxy)pyrazin-2-yl)piperidin-2-yl)methanol], the IC50 – broadly, the point on the concentration scale where inhibition reaches its midpoint – is under 25 nM.
For `O=C1CCC(c2nccnc2Oc2ccc(C(=O)c3nc4ccccc4[nH]3)cc2)CC1` [Example 195, 4-(2-(4-(1H-BENZO[D]IMIDAZOLE-2-CARBONYL)PHENOXY)PYRAZIN-3-YL)CYCLOHEXANONE], the IC50 is under 25 nM.
`COc1ncccc1-c1nccnc1Oc1ccc(C(=O)c2nc3ccccc3n2C)cc1` [Example 119, (4-(3-(2-methoxypyridin-3-yl)pyrazin-2-yloxy)phenyl)(1-methyl-1H-benzo[d]imidazol-2-yl)methanone]: the IC50 was under 25 nM.
Consider `CCCOc1nccnc1Oc1ccc(C(=O)c2nc3ccccc3[nH]2)cc1` [Example 180, (1H-benzo[d]imidazol-2-yl)(4-(3-propoxypyrazin-2-yloxy)phenyl)methanone], for which the IC50 fell in the range of 1000 to 5000 nM.
Same read-out and setting: next, `O=C1CN(c2nccnc2Oc2ccc(Nc3nc4ccccc4s3)cc2)CCN1` [Example 90, 4-(3-(4-(benzo[d]thiazol-2-yl-amino)phenoxy)pyrazin-2-yl)-piperazin-2-one]: under 25 nM; `CC(=O)N1CC(c2nccnc2Oc2ccc(C(=O)c3nc4ccccc4[nH]3)cc2)C1` [Example 250, 1-(3-(3-(4-(1H-benzo[d]imidazole-2-carbonyl)phenoxy)pyrazin-2-yl)azetidin-1-yl)ethanone]: under 25 nM; `CC1(C)C=C(c2nccnc2Oc2ccc(C(=O)c3nc4ccccc4[nH]3)cc2)C(=O)CC1` [Example 132, 2-(3-(4-(1H-benzo[d]imidazole-2-carbonyl)phenoxy)pyrazin-2-yl)-4,4-dimethylcyclohex-2-enone]: 25 to 100 nM.
Consider `Cc1ncccc1-c1nccnc1Oc1ccc(C(=O)c2nc3ccccc3[nH]2)cc1` [Example 109, (1H-benzo[d]imidazol-2-yl)(4-(3-(2-methylpyridin-3-yl)pyrazin-2-yloxy)phenyl)methanone], for which the IC50 was 25 to 100 nM.
On the same count and under the same terms, next, `Fc1cc(Oc2cnccn2)ccc1Nc1nc2ccccc2s1` [Example 216, N-(2-fluoro-4-(pyrazin-2-yloxy)phenyl)benzo[d]thiazol-2-amine]: 1000 to 5000 nM.
In the case of `OC1(c2nccnc2Oc2ccc(Nc3nc4ccccc4s3)cc2)CCOCC1` [Example 202, 4-(3-(4-(BENZO[D]THIAZOL-2-YLAMINO)PHENOXY)PYRAZIN-2-YL)TETRAHYDRO-2H-PYRAN-4-OL], the IC50 is under 25 nM.
On the same count and under the same terms, under `O=C(c1ccc(Oc2nccnc2OCc2cccnc2)cc1)c1nc2ccccc2[nH]1` [Example 179, (1H-benzo[d]imidazol-2-yl)(4-(3-(pyridin-3-ylmethoxy)pyrazin-2-yloxy)phenyl)methanone] stands 100 to 250 nM; under `CC1(O)CCN(c2nccnc2Oc2ccc(Nc3nc4ccccc4s3)cc2)CC1` [Example 60, 1-(3-(4-(BENZO[D]THIAZOL-2-YLAMINO)PHENOXY)PYRAZIN-2-YL)-4-METHYLPIPERIDIN-4-OL], under 25 nM.
In the case of `O=C(c1ccc(Oc2nccnc2OCCCc2cccnc2)cc1)c1nc2ccccc2[nH]1` [Example 178, (1H-benzo[d]imidazol-2-yl)(4-(3-(3-(pyridin-3-yl)propoxy)pyrazin-2-yloxy)phenyl)methanone], the half-maximal inhibitory concentration (IC50) lay in the range of 25 to 100 nM.
Regarding `O=C(O)C1CN(c2nccnc2Oc2ccc(Nc3nc4ccccc4s3)cc2)C1` [Example 78, 1-(3-(4-(benzo[d]thiazol-2-ylamino)phenoxy)pyrazin-2-yl)azetidine-3-carboxylic acid], the concentration for half-maximal inhibition (IC50) was under 25 nM.
Still for that read-out and setting: under `COc1ncccc1-c1nccnc1Oc1ccc(Nc2nc3cc(F)ccc3s2)cc1` [Example 154, 5-fluoro-N-(4-(3-(2-methoxypyridin-3-yl)pyrazin-2-yloxy)phenyl)benzo[d]thiazol-2-amine] stands 25 to 100 nM.
On the same count and under the same terms, next, `N#CC1CCN(c2nccnc2Oc2ccc(Nc3nc4ccccc4s3)cc2)CC1` [Example 70, 1-(3-(4-(benzo[d]thiazol-2-ylamino)phenoxy)pyrazin-2-yl)piperidine-4-carbonitrile]: under 25 nM; `Fc1ccc2nc(Nc3ccc(Oc4nccnc4Cl)cc3)sc2c1` [Example 62, N-(4-(3-CHLOROPYRAZIN-2-YLOXY)PHENYL)-6-FLUOROBENZO[D]THIAZOL-2-AMINE]: 1000 to 5000 nM.
With `c1ccc2sc(Nc3ccc(Oc4nccnc4NC4CCCOC4)cc3)nc2c1` (stereo not drawn) [Example 58, N-(4-(3-(TETRAHYDRO-2H-PYRAN-3-YLAMINO)PYRAZIN-2-YLOXY)PHENYL)BENZO[D]THIAZOL-2-AMINE], the IC50 was in the range of 25 to 100 nM.
Turning to `O=C(c1ccc(Oc2nccnc2C(=O)NCCc2ccc(C(F)(F)F)cc2)cc1)c1nc2ccccc2[nH]1` [Example 255, 3-(4-(1H-benzo[d]imidazole-2-carbonyl)phenoxy)-N-(4-(trifluoromethyl)phenethyl) pyrazine-2-carboxamide], the IC50 was under 25 nM.
`OC1CCCN(c2nccnc2Oc2ccc(Nc3nc4ccccc4s3)cc2)C1` (stereo not drawn) [Example 69, 1-(3-(4-(benzo[d]thiazol-2-ylamino)phenoxy)pyrazin-2-yl)piperidin-3-ol]: the IC50 was under 25 nM.

Staying with this experiment, now noted: PDE10 enzyme inhibition; average IC50 data for each compound; read-out: Average IC50.
In the case of `O=C(c1ccc(Oc2nccnc2N2CC[C@H](CO)C2)cc1)c1nc2ccccc2[nH]1`, the IC50 is 2.54 nM.
As for `C[C@H](F)C(=O)N1CCC(c2nccnc2Oc2ccc(C(=O)c3nc4ccccc4[nH]3)cc2)CC1` [drawing 977], the concentration for half-maximal inhibition (IC50) amounted to 0.137 nM.
With `c1ccc2sc(Nc3ccc(Oc4nccnc4C4CCCC4)cc3)nc2c1` [drawing 948], the IC50 worked out at 4.96 nM.
Turning to `COC(=O)C1CN(c2nccnc2Oc2ccc(Nc3nc4ccccc4s3)cc2)C1` [drawing 722], the IC50 was 8.4 nM.
Same read-out and setting: next, `COCC1CCCN(c2nccnc2Oc2ccc(Nc3nc4ccccc4s3)cc2)C1` (stereo not drawn) [drawing 736]: 18.5 nM; `CC(C)Oc1nccnc1Oc1ccc(C(=O)c2nc3ccccc3[nH]2)cc1` [drawing 844]: 56.6 nM.
On the same count and under the same terms, next, `c1cncc(-c2nccnc2Oc2ccc(Nc3nc4ccccc4s3)cc2)c1` [drawing 823]: 10.4 nM; `COc1ncc(-c2nccnc2Oc2ccc(Nc3nc4ccccc4s3)cc2)cn1` [drawing 783]: 23.2 nM; `CN1CCC2(CCN(c3nccnc3Oc3ccc(C(=O)c4nc5ccccc5[nH]4)cc3)CC2)C1=O`: 12.8 nM.
On to `CC(C)N1CCN(c2nccnc2Oc2ccc(Nc3nc4ccccc4s3)cc2)CC1=O` [drawing 766], for which the IC50 was 12.7 nM.
For `COc1ncccc1-c1nccnc1Oc1ccc(Nc2nc3ccccc3s2)c(F)c1` [drawing 972], the IC50 was determined as 2.68 nM.
As to `N#C[C@@H]1CCN(c2nccnc2Oc2ccc(C(=O)c3nc4ccccc4[nH]3)cc2)C1` [drawing 828], the IC50 is 1.76 nM.
For the compound `Fc1cccc2nc(Nc3ccc(Oc4nccnc4Cl)cc3)sc12` [drawing 826], the IC50 amounted to 751 nM.
`O=C(c1ccc(Oc2nccnc2[C@@H]2CCC[C@H](O)C2)cc1)c1nc2ccccc2[nH]1` (stereo in doubt): the IC50 was determined as 1.02 nM.
With `Cc1noc([C@@H]2CCN(c3nccnc3Oc3ccc(C(=O)c4nc5ccccc5[nH]4)cc3)C2)n1` (stereo in doubt), the 50% inhibitory concentration (IC50) was determined as 3.73 nM.
As to `O=C(c1ccc(Oc2nccnc2-c2ccc[nH]c2=O)cc1)c1nc2ccccc2[nH]1` [drawing 938], the IC50 amounted to 7.08 nM.
On to `CCOC(=O)C1CCN(c2nccnc2Oc2ccc(C(=O)c3nc4ccccc4[nH]3)cc2)CC1`, for which the IC50 was 5.19 nM.
On to `COC[C@@H]1CCCN1c1nccnc1Oc1ccc(C(=O)c2nc3ccccc3[nH]2)cc1`, for which the IC50 worked out at 1.37 nM.
Regarding `COc1ncccc1-c1nccnc1Oc1ccc(Nc2nc3cccc(F)c3s2)cc1` [drawing 950], the IC50 was determined as 7.76 nM.
As for `CN(C)CC(=O)N1CCC(c2nccnc2Oc2ccc(C(=O)c3nc4ccccc4[nH]3)cc2)CC1` [drawing 995], the IC50 was found to be 1.43 nM.
Turning to `N#CC1CN(c2nccnc2Oc2ccc(Nc3nc4ccccc4s3)cc2)C1` [drawing 776], the IC50 is 6.75 nM.
Take `N#CC1(c2nccnc2Oc2ccc(Nc3nc4ccccc4s3)cc2)CCOCC1` [drawing 867]: the IC50 was found to be 4.46 nM.
Still for that read-out and setting: next, `COC(=O)[C@@H]1CCN(c2nccnc2Oc2ccc(C(=O)c3nc4ccccc4[nH]3)cc2)C1` (stereo in doubt): 3.43 nM; `COc1ccc(-c2nccnc2Oc2ccc(C(=O)c3nc4ccccc4[nH]3)cc2)cn1` [drawing 876]: 14.2 nM.
Consider `O=C1C=C(c2nccnc2Oc2ccc(Nc3nc4ccccc4s3)c(F)c2)CCC1` [drawing 998], for which the IC50 worked out at 22.1 nM.
Take `COCC(=O)N1CCC(c2nccnc2Oc2ccc(Nc3nc4ccccc4s3)cc2)CC1` [drawing 946]: the IC50 stood at 0.024 nM.
Regarding `O=C(c1ccc(Oc2nccnc2-c2cccc3ncccc23)cc1)c1nc2ccccc2[nH]1` [drawing 803], the IC50 turned out to be 3.18 nM.

Still in this experiment, the particulars now being: PDE10 enzyme inhibition; chiral compounds separated from racemic mixtures; read-out: IC50.
As to `C[C@H]1CN(c2nccnc2Oc2ccc(Nc3nc4ccccc4s3)cc2)CC(=O)N1` [Example 268, (S)-4-(3-(4-(benzo[d]thiazol-2-ylamino)phenoxy)pyrazin-2-yl)-6-methylpiperazin-2-one], the IC50 is under 25 nM.
